According to patent US11026426B2, “Oxadiazole and phenol derivatives as antibacterial and/or herbicidal agents” (NORTHERN ILLINOIS RESEARCH FOUNDATION, priority 2017, dated 2021):
Where two headings read alike, the source gives them in different places.

Tests used:
Type in all cases: cell-based
[1] = test system: Burkholderia thailandensis
Pseudomonas aeruginosa = assay: Antibacterial assay zone of inhibition Pa
Micrococcus luteus = assay: Antibacterial assay zone of inhibition Ml
Klebsiella pneumonia = assay: Antibacterial assay zone of inhibition Kp
Escherichia coli = assay: Antibacterial assay zone of inhibition Ec
Bacillus cereus = assay: Antibacterial assay zone of inhibition Bc
Mycobacterium smegmatis = assay: Antibacterial assay zone of inhibition Ms
Corynebacterium xerosis = assay: Antibacterial assay zone of inhibition Cx
[2] = test system: Corynebacterium pseudodiphtheriae; assay: Antibacterial assay zone of inhibition Cp

SMILES | Antibacterial Pa zone of inhibition (Pseudomonas aeruginosa; 0.1 mM) [millimeters] | Antibacterial Pa zone of inhibition (Pseudomonas aeruginosa; 0.5 mM) [millimeters] | Antibacterial Pa zone of inhibition (Pseudomonas aeruginosa; 1 mM) [millimeters] | Antibacterial Ml zone of inhibition (Micrococcus luteus; 0.1 mM) [millimeters] | Antibacterial Ml zone of inhibition (Micrococcus luteus; 0.5 mM) [millimeters] | Antibacterial Ml zone of inhibition (Micrococcus luteus; 1 mM) [millimeters] | Antibacterial Kp zone of inhibition (Klebsiella pneumonia; 0.1 mM) [millimeters] | Antibacterial Kp zone of inhibition (Klebsiella pneumonia; 0.5 mM) [millimeters] | Antibacterial Kp zone of inhibition (Klebsiella pneumonia; 1 mM) [millimeters] | Antibacterial Ec zone of inhibition (Escherichia coli; 0.1 mM) | Antibacterial Ec zone of inhibition (Escherichia coli; 0.5 mM) | Antibacterial Bc zone of inhibition (Bacillus cereus; 0.1 mM) [millimeters] | Antibacterial Bc zone of inhibition (Bacillus cereus; 0.5 mM) [millimeters] | Antibacterial Bc zone of inhibition (Bacillus cereus; 1 mM) [millimeters] | Antibacterial Ms zone of inhibition (Mycobacterium smegmatis; 0.1 mM) [millimeters] | Antibacterial Ms zone of inhibition (Mycobacterium smegmatis; 0.5 mM) [millimeters] | Antibacterial Ms zone of inhibition (Mycobacterium smegmatis; 1 mM) [millimeters] | Antibacterial Cx zone of inhibition (Corynebacterium xerosis; 0.1 mM) [millimeters] | Antibacterial Cx zone of inhibition (Corynebacterium xerosis; 0.5 mM) [millimeters] | Antibacterial Cx zone of inhibition (Corynebacterium xerosis; 1 mM) [millimeters] | further results
Clc1ccc(CCc2nnc(-c3nc4ccccc4s3)o2)c(Cl)c1 [HGN-824] | 0 | 0 | 0 | 0 | 0 | 0 | 0 | 0 | 0 | 0 millimeters | 0 millimeters | 0 | 0 | 0 | 0 | 12 | 18 | 0 | 0 | 0 | Antibacterial Bt zone of inhibition ([1]; 0.1 mM): 0 millimeters; Antibacterial Bt zone of inhibition ([1]; 0.5 mM): 0 millimeters; Antibacterial Bt zone of inhibition ([1]; 1 mM): 0 millimeters; Antibacterial Ec zone of inhibition (Escherichia coli; 1 mM): 0 millimeters; Antibacterial Cp zone of inhibition ([2]; 0.1 mM): 0 millimeters; Antibacterial Cp zone of inhibition ([2]; 0.5 mM): 0 millimeters; Antibacterial Cp zone of inhibition ([2]; 1 mM): 10 millimeters
Cc1ccc(OCc2nnc(-c3nc4ccccc4s3)o2)cc1 [HGN-825] | 0 | 0 | 0 | 0 | 0 | 11 | 0 | 0 | 0 | 0 millimeters | 0 millimeters | 0 | 0 | 11.5 | 0 | 13 | 18 | 0 | 0 | 0 | Antibacterial Bt zone of inhibition [1]: 0 millimeters; Antibacterial Ec zone of inhibition (Escherichia coli; 1 mM): 0 millimeters; Antibacterial Cp zone of inhibition ([2]; 0.1 mM): 0 millimeters; Antibacterial Cp zone of inhibition ([2]; 0.5 mM): 0 millimeters; Antibacterial Cp zone of inhibition ([2]; 1 mM): 0 millimeters
Clc1ccc(OCc2nnc(-c3nc4ccccc4s3)o2)cc1 [HGN-826] | 0 | 0 | 0 | 0 | 0 | 0 | 0 | 0 | 0 | 0 millimeters | 0 millimeters | 0 | 0 | 12 | 0 | 13 | 20 | 0 | 0 | 0 | Antibacterial Bt zone of inhibition ([1]; 0.1 mM): 0 millimeters; Antibacterial Bt zone of inhibition ([1]; 0.5 mM): 0 millimeters; Antibacterial Bt zone of inhibition ([1]; 1 mM): 0 millimeters; Antibacterial Ec zone of inhibition (Escherichia coli; 1 mM): 0 millimeters; Antibacterial Cp zone of inhibition ([2]; 0.1 mM): 0 millimeters; Antibacterial Cp zone of inhibition ([2]; 0.5 mM): 0 millimeters; Antibacterial Cp zone of inhibition ([2]; 1 mM): 0 millimeters
COc1ccc(OCc2nnc(-c3nc4ccccc4s3)o2)cc1 [HGN-833] | 0 | 0 | 0 | 0 | 0 | 13 | 0 | 0 | 0 | 0 millimeters | 0 millimeters | 0 | 10 | 15 | 0 | 0 | 0 | 0 | 0 | 15 | Antibacterial Bt zone of inhibition ([1]; 0.1 mM): 0 12 17 millimeters; Antibacterial Bt zone of inhibition ([1]; 0.5 mM): 0 12 17 millimeters; Antibacterial Bt zone of inhibition ([1]; 1 mM): 0 12 17 millimeters; Antibacterial Ec zone of inhibition (Escherichia coli; 1 mM): 0 millimeters; Antibacterial Cp zone of inhibition ([2]; 0.1 mM): 0 millimeters; Antibacterial Cp zone of inhibition ([2]; 0.5 mM): 0 millimeters; Antibacterial Cp zone of inhibition ([2]; 1 mM): 14 millimeters
Clc1ccc(OCc2nnc(-c3nc4ccccc4s3)o2)cc1Cl [HGN-834] | 0 | 0 | 0 | 0 | 0 | 0 | 0 | 0 | 0 | 0 millimeters | 0 millimeters | 0 | 11 | 18 | 0 | 0 | 0 | 0 | 0 | 0 | Antibacterial Bt zone of inhibition ([1]; 0.1 mM): 0 millimeters; Antibacterial Bt zone of inhibition ([1]; 0.5 mM): 0 millimeters; Antibacterial Bt zone of inhibition ([1]; 1 mM): 0 millimeters; Antibacterial Ec zone of inhibition (Escherichia coli; 1 mM): 0 millimeters; Antibacterial Cp zone of inhibition ([2]; 0.1 mM): 0 millimeters; Antibacterial Cp zone of inhibition ([2]; 0.5 mM): 0 millimeters; Antibacterial Cp zone of inhibition ([2]; 1 mM): 0 millimeters
Clc1cccc(OCc2nnc(-c3nc4ccccc4s3)o2)c1 [HGN-835] | 0 | 0 | 0 | 0 | 0 | 14 | 0 | 14 | 18 | 0 millimeters | 0 millimeters | 0 | 14 | 20 | 0 | 0 | 0 | 0 | 0 | 0 | Antibacterial Bt zone of inhibition ([1]; 0.1 mM): 0 12.5 18 millimeters; Antibacterial Bt zone of inhibition ([1]; 0.5 mM): 0 12.5 18 millimeters; Antibacterial Bt zone of inhibition ([1]; 1 mM): 0 12.5 18 millimeters; Antibacterial Ec zone of inhibition (Escherichia coli; 1 mM): 0 millimeters; Antibacterial Cp zone of inhibition ([2]; 0.1 mM): 0 millimeters; Antibacterial Cp zone of inhibition ([2]; 0.5 mM): 0 millimeters; Antibacterial Cp zone of inhibition ([2]; 1 mM): 0 millimeters
CC(C)(C)c1ccc(OCc2nnc(-c3nc4ccccc4s3)o2)cc1 [HGN-836] | 0 | 0 | 0 | 0 | 0 | 0 | 0 | 0 | 7 | 0 NT millimeters | 0 NT millimeters | 0 | 0 | 13 | 0 | 0 | 0 | 0 | 0 | 11 | Antibacterial Bt zone of inhibition ([1]; 0.1 mM): 0 15 18 millimeters; Antibacterial Bt zone of inhibition ([1]; 0.5 mM): 0 15 18 millimeters; Antibacterial Bt zone of inhibition ([1]; 1 mM): 0 15 18 millimeters; Antibacterial Cp zone of inhibition ([2]; 0.1 mM): 0 millimeters; Antibacterial Cp zone of inhibition ([2]; 0.5 mM): 0 millimeters; Antibacterial Cp zone of inhibition ([2]; 1 mM): 0 millimeters
